Measurements as given in PubChem BioAssay (NCI).
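Interpolation was linear, between the two tested concentrations surrounding the appropriate level; five concentrations were tested over 48 hours in 96-well plates. TGI denotes the concentration required for complete inhibition of growth.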

What was measured:
Assay in all cases: NCI tumour cell line growth inhibition, 48 h
[1] = tested on: ACHN renal
[2] = tested on: COLO 205 colon
[3] = tested on: DU-145 prostate
[4] = tested on: HCT-15 colon
[5] = tested on: HL-60(TB) leukemia
[6] = tested on: LOX IMVI melanoma
[7] = tested on: MALME-3M melanoma
[8] = tested on: MOLT-4 leukemia
[9] = tested on: NCI-H522 lung
[10] = tested on: NCI/ADR-RES ovarian
[11] = tested on: PC-3 prostate
[12] = tested on: SF-295 CNS
[13] = tested on: SK-MEL-5 melanoma
[14] = tested on: SNB-19 CNS
[15] = tested on: UO-31 renal
[16] = tested on: MCF7 breast
[17] = tested on: SK-MEL-2 melanoma
[18] = tested on: MDA-N

Compound | TGI [1] | TGI [2] | TGI [3] | TGI [4] | TGI [5] | TGI [6] | TGI [7] | TGI [8] | TGI [9] | TGI [10] | TGI [11] | TGI [12] | TGI [13] | TGI [14] | TGI [15] | TGI [16] | TGI [17] | TGI [18]
O=[N+]([O-])c1cc(Cl)cc2cc(Cl)cnc12 | > 100 µM | > 100 µM | > 100 µM | > 100 µM | > 100 µM | > 100 µM | > 100 µM | > 100 µM | > 100 µM | > 100 µM | > 100 µM | > 100 µM | > 100 µM | > 100 µM | > 100 µM |  |  | 
NC1=NNC2(C(N)=N1)c1ccccc1-c1ccccc12 | > 10 µM | > 10 µM | > 10 µM | > 10 µM | > 10 µM | > 10 µM | > 10 µM | > 10 µM | > 10 µM | > 10 µM | > 10 µM | > 10 µM | > 10 µM | > 10 µM | > 10 µM | > 10 µM |  | 
CCOC(=O)CCC(NC(=O)Cc1ccc(Oc2nc3ccccc3nc2-c2cccs2)cc1)C(=O)OCC (stereo not given) | 18.3 µM | > 100 µM | > 100 µM | > 100 µM | > 100 µM | > 100 µM | > 100 µM | > 100 µM | > 100 µM | > 100 µM | > 100 µM | > 100 µM | > 100 µM | 37.2 µM | 72.7 µM | > 100 µM | > 100 µM | 
OC1CN2CCS[C@H]2C(O)C1O (stereo not given in full) | > 100 µM | > 100 µM | > 100 µM | > 100 µM | > 100 µM | > 100 µM | > 100 µM | > 100 µM | > 100 µM | > 100 µM | > 100 µM | > 100 µM | > 100 µM | > 100 µM | > 100 µM |  | > 100 µM | 
COc1ccc([C@H]2CC(=O)NCCCCN2)cc1 | > 100 µM | > 100 µM |  | > 100 µM |  |  | > 100 µM | > 100 µM | > 100 µM |  |  | > 100 µM | > 100 µM | > 100 µM | > 100 µM |  | > 100 µM | 
COc1ccc2oc(C(=O)N3CC(CCl)c4ccc([N+](=O)[O-])cc43)cc2c1 (stereo not given) | > 100 µM | > 100 µM | > 100 µM |  |  | > 100 µM |  |  |  | > 100 µM | > 100 µM | 69.6 µM | > 100 µM | > 100 µM | > 100 µM |  | > 100 µM | 
COc1cccc(/C=C2\CCCCCC2=O)c1 | > 100 µM | > 100 µM | > 100 µM | > 100 µM |  | > 100 µM | > 100 µM | > 100 µM | > 100 µM |  | > 100 µM | > 100 µM | > 100 µM | > 100 µM | > 100 µM |  | > 100 µM | > 100 µM
CC(=O)O[C@H]1C(=O)[C@@]2(C)C(C(OC(=O)c3ccccc3)[C@]3(O)CC(OC(=O)C(O)C(NC(=O)c4ccc(C)cc4)c4ccccc4)C(C)=C1C3(C)C)[C@]1(OC(C)=O)CO[C@@H]1C[C@@H]2O (stereo not given in full) | > 25 µM | 0.00736 µM |  | 3.29 µM | 3.35 µM | 7.77 µM | 11.5 µM | 7.39 µM | < 0.0025 µM |  |  | 0.107 µM | 16.8 µM | 16.7 µM | 9.23 µM |  | 0.0141 µM | 
Cc1n[nH]c(=O)n1/N=C/c1c[nH]c2ccccc12 | > 100 µM | > 100 µM | > 100 µM | > 100 µM |  |  | > 100 µM | > 100 µM | > 100 µM | > 100 µM | > 100 µM | > 100 µM |  | > 100 µM | > 100 µM | > 100 µM | > 100 µM | 
CC(CO)C1=CC(C#CCOCc2ccccc2)N(C(=O)Oc2ccccc2)c2ccccc21 (stereo not given) | 36.3 µM | 28.4 µM | > 100 µM | 29.7 µM | > 100 µM | > 100 µM |  | > 100 µM | 37.3 µM | 63.3 µM | > 100 µM | 71.9 µM | 74.5 µM | > 100 µM | > 100 µM |  | > 100 µM | > 100 µM
CN(C)c1nc(NN)c2c(-c3ccccc3)c(-c3ccccc3)oc2n1 | > 100 µM | > 100 µM | > 100 µM | > 100 µM |  | > 100 µM |  | > 100 µM | > 100 µM | > 100 µM |  | > 100 µM |  | > 100 µM | > 100 µM | > 100 µM |  | 
COP1(=O)Oc2ccccc2C(=O)C(C(F)(F)F)(C(F)(F)F)O1 (stereo not given) | > 100 µM | > 100 µM |  | > 100 µM | > 100 µM | > 100 µM |  | > 100 µM | > 100 µM |  |  | > 100 µM | > 100 µM | > 100 µM | > 100 µM |  | > 100 µM | 
CC(C)OP(=O)(OC(C)C)C(=Nc1ccccc1)NNc1ccc([N+](=O)[O-])cc1 | 92.5 µM | 51.5 µM |  | > 100 µM | 46.2 µM | > 100 µM | 50 µM | 41.9 µM | 58 µM |  |  |  | 27.1 µM | > 100 µM | > 100 µM |  | > 100 µM | 
